The values that follow come from PubChem BioAssay (NCI).

Holding throughout (experiment): NCI tumour cell line growth inhibition, 48 h
Assay [1] concerns DMS 114 small cell lung.
Assay [2] has as its system HOP-18 NSCLC.
Assay [3] concerns SNB-78 CNS.
Assay [4] concerns DMS 273 small cell lung.
The test system of assay [5] is DLD-1 colon.
The subject of assay [6] is P388 leukemia.
The subject of assay [7] is P388/ADR leukemia.
For assay [8], the system named is SN12K1 renal.
Assay [9] deals with LXFL 529 NSCLC.
Assay [10] deals with XF 498 CNS.

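Where inhibition never reached the appropriate level, the endpoint shown equals the highest concentration tested. Otherwise, values were interpolated linearly from a five-concentration, 48-hour dose response in 96-well plates. The concentration for 50% growth inhibition is given as GI50. TGI is the concentration that stops growth completely.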

As to `Cc1cc(=O)[nH]c(NN2C(Cl)C(=O)C2c2cccc(Cl)c2)n1` (stereo not given), the TGI in assay [1] is 54.8 µM; in assay [2] it was 55.2 µM; in assay [3], 79.3 µM; in [4] it was 33.9 µM.
Regarding `O=C1Nc2ccccc2Nc2ccncc21`, the TGI was over 100 µM in assay [5]; over 100 µM in assay [1]; over 100 µM in [2]; over 100 µM in assay [6]; over 31.6 µM in assay [7]; over 100 µM in assay [3]. The TGI in assay [4] and in assay [8] was over 100 µM each time.
For `CC(=O)[CH-]C(=O)c1ccccc1.CC(=O)[CH-]C(=O)c1ccccc1.C[C@]12CCC(=O)C=C1CC[C@@H]1C2CC[C@@]2(C)C1CC[C@]2(C)[O-].C[C@]12CCC(=O)C=C1CC[C@@H]1C2CC[C@@]2(C)C1CC[C@]2(C)[O-].Cl.[Ti+4]` (stereo not given in full), the GI50 in [5] is 12.2 µM; in [9], 20.7 µM; in [2], 40 µM; in assay [4], 17.4 µM. For the same compound, the TGI in assay [5] was 40.9 µM; in assay [9] it was 76.4 µM; in [2] it was over 100 µM; in assay [4], 89.9 µM.
Consider `CCc1nc2ccc(NCCN(C)C)c3c(=O)c4ccccc4n1c23`, for which the TGI in [5] was found to be 9.88 µM; in [9] it was 13.9 µM; in [1], 14.8 µM; in [2] it was 6.55 µM; in [3], 19.3 µM.
Take `COc1cccc(/C=N/[N-]C(N)=O)c1[O-].[Cu+2].[OH3+].c1ccc(-c2ccccn2)nc1`: in assay [10], the GI50 was 7.92 µM and the TGI was 19.9 µM.
For the compound `COc1cccc(-c2cc(=O)c3ccccc3[nH]2)c1`, the TGI in assay [5] was over 100 µM; in assay [9], over 100 µM; in assay [1], over 59.3 µM; in assay [10], 72.3 µM; in assay [2], over 100 µM; in assay [4] it was over 100 µM.
For `CCOC(=O)N(c1ccccc1)N(CC)C(=O)/C(C)=N/Nc1ccc([N+](=O)[O-])cc1`, the TGI came out at 30.7 µM in [5]; 34.6 µM in assay [9]; 43.5 µM in [1]; 33.4 µM in assay [10]; 36.9 µM in assay [2]; 58.9 µM in assay [3]. This compound gave a TGI in assay [4] of 30 µM.
